The conditions of data set [1]: 101.33 kPa, Liquid, Pycnometric method.
A short description of data set [2]: xn = mol fraction of the nth substance listed. To be noted: Pycnometric method.

Numbers after ± are expanded uncertainties.

In the NIST ThermoML archive (doi:10.1021/je8006474) one finds mass density and molar volume data, which are given here for 12 compounds.

As a reminder, the mass density is the mass of a sample divided by its volume.

For the compound `Fc1ccc(F)c(F)c1F` [1,2,3,4-tetrafluorobenzene], the values for the mass density in data set [1] (296.4 K) and in data set [1] (327.4 K) were 1408 ± 40 kg/m3 and 1360 ± 40 kg/m3, respectively.

`Fc1cc(F)c(F)c(F)c1` [1,2,3,5-tetrafluorobenzene]: the results for the mass density in data set [1] (296.3 K) and in data set [1] (325.9 K) were 1403 ± 37 kg/m3 and 1352 ± 37 kg/m3, respectively.

Take `Fc1cccc(F)c1F` [1,2,3-trifluorobenzene]: the figures for the mass density in data set [1] (296 K) and in data set [1] (331.6 K) were 1292 ± 36 kg/m3 and 1240 ± 36 kg/m3, respectively.

Turning to `Fc1cc(F)c(F)cc1F` [1,2,4,5-tetrafluorobenzene], the mass density was determined as 1421 ± 36 kg/m3 in data set [1] (296.7 K) and 1370 ± 36 kg/m3 in data set [1] (327.4 K).

For the compound `Fc1ccc(F)c(F)c1` [1,2,4-trifluorobenzene], the mass density in data set [1] (296.6 K) is on record as 1280 ± 36 kg/m3; in data set [1] (330.7 K) it was 1247 ± 36 kg/m3.

As to `Fc1ccccc1F` [1,2-difluorobenzene], the values for the mass density in data set [1] (296.2 K) and in data set [1] (331.1 K) were 1156 ± 36 kg/m3 and 1117 ± 36 kg/m3, respectively.

Consider `Fc1cc(F)cc(F)c1` [1,3,5-trifluorobenzene], for which the values for the mass density in data set [1] (297.2 K) and in data set [1] (324.9 K) were 1268 ± 36 kg/m3 and 1225 ± 36 kg/m3, respectively.

For the compound `Fc1cccc(F)c1` [1,3-difluorobenzene], the figures for the mass density in data set [1] (296.2 K) and in data set [1] (330.6 K) were 1139 ± 36 kg/m3 and 1094 ± 36 kg/m3, respectively.

Regarding `Fc1ccc(F)cc1` [1,4-difluorobenzene], the figures for the mass density in data set [1] (296.1 K) and in data set [1] (327.2 K) were 1146 ± 36 kg/m3 and 1110 ± 36 kg/m3, respectively.

As to `Fc1ccccc1` [fluorobenzene], the mass density in data set [1] (296.2 K) was found to be 1022 ± 16 kg/m3; in data set [1] (330.1 K), 985 ± 16 kg/m3.

Take `Fc1cc(F)c(F)c(F)c1F` [pentafluorobenzene]: the mass density in data set [1] (296.9 K) was found to be 1511 ± 20 kg/m3; in data set [1] (327.6 K), 1453 ± 20 kg/m3.

With `Fc1cc(F)c(F)c(F)c1F` [pentafluorobenzene] + CCn1cc[n+](C)c1.O=S(=O)([N-]S(=O)(=O)C(F)(F)F)C(F)(F)F, the molar volume amounted to 0.0001484 ± 6.2e-06 m3/mol in data set [2] (283.4 K, Liquid mixture 1, x1 = 0.715); 0.0001093 ± 4.8e-06 m3/mol in data set [2] (283.4 K, Liquid mixture 2, x1 = 0.997); 0.0001523 ± 6.2e-06 m3/mol in data set [2] (298.2 K, Liquid mixture 1, x1 = 0.704); 0.0001109 ± 4.8e-06 m3/mol in data set [2] (298.2 K, Liquid mixture 2, x1 = 0.998); 0.0001552 ± 6.2e-06 m3/mol in data set [2] (316.6 K, Liquid mixture 1, x1 = 0.696); 0.0001139 ± 4.8e-06 m3/mol in data set [2] (316.6 K, Liquid mixture 2, x1 = 0.997). For the same compound, the molar volume came out at 0.0001605 ± 6.2e-06 m3/mol in data set [2] (333.2 K, Liquid mixture 1, x1 = 0.681); 0.0001155 ± 4.8e-06 m3/mol in data set [2] (333.2 K, Liquid mixture 2, x1 = 1); 0.0001652 ± 6.2e-06 m3/mol in data set [2] (353.1 K, Liquid mixture 1, x1 = 0.669); 0.0001187 ± 4.8e-06 m3/mol in data set [2] (353.1 K, Liquid mixture 2, x1 = 1); 0.0001692 ± 6.2e-06 m3/mol in data set [2] (373 K, Liquid mixture 1, x1 = 0.657); 0.0001228 ± 4.8e-06 m3/mol in data set [2] (373 K, Liquid mixture 2, x1 = 1).
